pIC50: −log10 of the molar value.
Key:
Aurora kinase A = molecular target: T1, Aurora kinase A (Homo sapiens, UniProt O14965); assay: Inhibition of Aurora A (unknown origin) using Tamra-PKAtide as substrate by fluorescence polarization assay
T1 sequence (O14965 whole entry): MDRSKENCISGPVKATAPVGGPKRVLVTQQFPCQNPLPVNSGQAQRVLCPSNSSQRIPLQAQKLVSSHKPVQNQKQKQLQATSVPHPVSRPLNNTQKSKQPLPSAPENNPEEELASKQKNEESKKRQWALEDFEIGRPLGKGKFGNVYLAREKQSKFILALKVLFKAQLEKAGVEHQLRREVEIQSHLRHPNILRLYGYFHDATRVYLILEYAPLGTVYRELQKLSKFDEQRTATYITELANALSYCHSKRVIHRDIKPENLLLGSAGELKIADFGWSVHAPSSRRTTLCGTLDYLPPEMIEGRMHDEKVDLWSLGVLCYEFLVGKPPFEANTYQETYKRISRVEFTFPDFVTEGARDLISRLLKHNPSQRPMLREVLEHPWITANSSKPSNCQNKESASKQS

Aurora kinase B = Aurora kinase B (Homo sapiens, UniProt Q96GD4); assay: Inhibition of Aurora B (unknown origin) using Tamra-PKAtide as substrate by fluorescence polarization assay
[1] = Apparent permeability from apical to basolateral side in human intestinal Caco2 cells; format: ADME, cell-based; conditions: Caco-2
[2] = molecular target: T2, Serine/threonine-protein kinase Chk1 (Homo sapiens, UniProt O14757); assay: Inhibition of CHK1 (unknown origin)
T2 sequence (O14757 whole entry): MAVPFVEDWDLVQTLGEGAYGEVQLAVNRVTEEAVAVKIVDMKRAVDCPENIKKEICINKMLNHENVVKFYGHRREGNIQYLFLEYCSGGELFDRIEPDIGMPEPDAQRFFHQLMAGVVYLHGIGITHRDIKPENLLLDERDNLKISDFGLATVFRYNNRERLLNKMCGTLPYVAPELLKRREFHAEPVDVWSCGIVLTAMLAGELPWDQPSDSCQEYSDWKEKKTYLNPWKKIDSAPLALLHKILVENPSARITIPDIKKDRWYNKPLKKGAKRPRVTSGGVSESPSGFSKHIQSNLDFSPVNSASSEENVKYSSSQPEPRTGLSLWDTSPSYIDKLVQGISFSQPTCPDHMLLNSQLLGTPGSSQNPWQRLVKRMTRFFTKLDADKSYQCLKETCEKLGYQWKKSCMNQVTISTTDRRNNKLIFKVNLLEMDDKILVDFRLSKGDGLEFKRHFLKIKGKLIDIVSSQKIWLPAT

[3] = molecular target: T3, Receptor-type tyrosine-protein kinase FLT3 (Homo sapiens, UniProt P36888); assay: Inhibition of FLT3 (unknown origin)
T3 sequence (P36888 whole entry): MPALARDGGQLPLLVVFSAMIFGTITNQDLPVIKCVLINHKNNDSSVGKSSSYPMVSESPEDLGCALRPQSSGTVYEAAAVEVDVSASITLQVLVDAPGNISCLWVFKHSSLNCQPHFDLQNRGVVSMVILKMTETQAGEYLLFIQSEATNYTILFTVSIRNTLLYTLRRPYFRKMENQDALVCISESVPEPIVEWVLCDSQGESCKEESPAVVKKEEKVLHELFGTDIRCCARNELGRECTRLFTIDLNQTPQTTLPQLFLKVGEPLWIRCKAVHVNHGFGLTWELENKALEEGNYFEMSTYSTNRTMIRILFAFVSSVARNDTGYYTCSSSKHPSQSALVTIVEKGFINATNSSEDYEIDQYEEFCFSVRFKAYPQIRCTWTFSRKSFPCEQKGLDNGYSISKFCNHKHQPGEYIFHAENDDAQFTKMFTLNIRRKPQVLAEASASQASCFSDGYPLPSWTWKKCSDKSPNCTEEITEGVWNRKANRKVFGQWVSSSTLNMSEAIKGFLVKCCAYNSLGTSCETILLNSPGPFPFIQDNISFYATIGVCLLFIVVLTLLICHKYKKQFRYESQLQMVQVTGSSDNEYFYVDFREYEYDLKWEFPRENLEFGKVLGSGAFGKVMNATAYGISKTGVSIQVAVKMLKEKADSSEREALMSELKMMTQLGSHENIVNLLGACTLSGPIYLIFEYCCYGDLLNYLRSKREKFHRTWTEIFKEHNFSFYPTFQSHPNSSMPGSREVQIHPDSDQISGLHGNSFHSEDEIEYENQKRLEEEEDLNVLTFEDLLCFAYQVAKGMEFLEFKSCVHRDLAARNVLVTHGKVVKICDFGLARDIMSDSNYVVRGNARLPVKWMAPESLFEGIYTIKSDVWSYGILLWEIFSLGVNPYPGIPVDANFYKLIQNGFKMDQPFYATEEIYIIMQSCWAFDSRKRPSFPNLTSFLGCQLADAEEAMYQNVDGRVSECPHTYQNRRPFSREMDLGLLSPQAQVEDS

[4] = molecular target: Tyrosine-protein kinase Lck (Homo sapiens, UniProt P06239); assay: Inhibition of LCK (unknown origin)
[5] = molecular target: RAC-alpha serine/threonine-protein kinase (Homo sapiens, UniProt P31749); assay: Inhibition of AKT1 (unknown origin)
[6] = molecular target: T4, Calcium/calmodulin-dependent protein kinase type IV (Homo sapiens, UniProt Q16566); assay: Inhibition of CAMK4 (unknown origin)
T4 sequence (Q16566 whole entry): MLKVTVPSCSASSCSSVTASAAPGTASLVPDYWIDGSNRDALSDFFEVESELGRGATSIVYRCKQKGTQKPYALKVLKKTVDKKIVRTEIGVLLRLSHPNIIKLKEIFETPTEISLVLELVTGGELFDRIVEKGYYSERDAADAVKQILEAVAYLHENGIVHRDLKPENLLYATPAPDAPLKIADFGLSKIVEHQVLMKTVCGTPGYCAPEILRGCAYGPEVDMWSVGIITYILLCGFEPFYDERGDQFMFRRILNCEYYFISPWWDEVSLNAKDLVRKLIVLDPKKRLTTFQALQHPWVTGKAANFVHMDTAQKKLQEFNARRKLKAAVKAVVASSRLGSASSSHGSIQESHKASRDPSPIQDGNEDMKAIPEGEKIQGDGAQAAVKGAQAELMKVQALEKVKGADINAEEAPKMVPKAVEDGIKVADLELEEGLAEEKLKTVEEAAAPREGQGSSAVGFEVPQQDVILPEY

[7] = molecular target: Epidermal growth factor receptor (Homo sapiens, UniProt P00533); assay: Inhibition of EGFR (unknown origin)
[8] = molecular target: Mitogen-activated protein kinase 1 (Homo sapiens, UniProt P28482); assay: Inhibition of ERK2 (unknown origin)
[9] = molecular target: Insulin-like growth factor 1 receptor (Homo sapiens, UniProt P08069); assay: Inhibition of IGF1R (unknown origin)
[10] = molecular target: Tyrosine-protein kinase JAK2 (Homo sapiens, UniProt O60674); assay: Inhibition of JAK2 (unknown origin)
[11] = molecular target: Protein kinase C alpha type (Homo sapiens, UniProt P17252); assay: Inhibition of PKCA (unknown origin)
[12] = molecular target: Serine/threonine-protein kinase PLK3 (Homo sapiens, UniProt Q9H4B4); assay: Inhibition of PLK3 (unknown origin)

Sequence of Insulin-like growth factor 1 receptor (P08069 31-736 limits assumed): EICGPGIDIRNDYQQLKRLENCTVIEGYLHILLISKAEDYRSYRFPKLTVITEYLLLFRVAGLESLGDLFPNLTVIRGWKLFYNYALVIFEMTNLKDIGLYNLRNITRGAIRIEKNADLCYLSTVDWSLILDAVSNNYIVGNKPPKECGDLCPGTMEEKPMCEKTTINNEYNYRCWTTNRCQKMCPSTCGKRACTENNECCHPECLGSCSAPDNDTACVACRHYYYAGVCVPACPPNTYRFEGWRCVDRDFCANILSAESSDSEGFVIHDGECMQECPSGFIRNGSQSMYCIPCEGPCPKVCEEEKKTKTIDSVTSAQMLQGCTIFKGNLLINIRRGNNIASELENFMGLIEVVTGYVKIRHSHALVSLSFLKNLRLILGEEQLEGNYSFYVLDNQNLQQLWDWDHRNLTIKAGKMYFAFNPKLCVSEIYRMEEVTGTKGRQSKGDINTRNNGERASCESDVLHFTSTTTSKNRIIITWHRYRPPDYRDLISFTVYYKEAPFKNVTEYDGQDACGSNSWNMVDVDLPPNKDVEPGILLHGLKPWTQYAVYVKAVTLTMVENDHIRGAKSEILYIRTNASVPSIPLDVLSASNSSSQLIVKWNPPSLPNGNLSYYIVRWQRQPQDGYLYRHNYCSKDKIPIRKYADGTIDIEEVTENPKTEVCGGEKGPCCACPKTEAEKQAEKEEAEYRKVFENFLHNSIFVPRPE
Sequence of Insulin-like growth factor 1 receptor (P08069 741-1367 limits assumed): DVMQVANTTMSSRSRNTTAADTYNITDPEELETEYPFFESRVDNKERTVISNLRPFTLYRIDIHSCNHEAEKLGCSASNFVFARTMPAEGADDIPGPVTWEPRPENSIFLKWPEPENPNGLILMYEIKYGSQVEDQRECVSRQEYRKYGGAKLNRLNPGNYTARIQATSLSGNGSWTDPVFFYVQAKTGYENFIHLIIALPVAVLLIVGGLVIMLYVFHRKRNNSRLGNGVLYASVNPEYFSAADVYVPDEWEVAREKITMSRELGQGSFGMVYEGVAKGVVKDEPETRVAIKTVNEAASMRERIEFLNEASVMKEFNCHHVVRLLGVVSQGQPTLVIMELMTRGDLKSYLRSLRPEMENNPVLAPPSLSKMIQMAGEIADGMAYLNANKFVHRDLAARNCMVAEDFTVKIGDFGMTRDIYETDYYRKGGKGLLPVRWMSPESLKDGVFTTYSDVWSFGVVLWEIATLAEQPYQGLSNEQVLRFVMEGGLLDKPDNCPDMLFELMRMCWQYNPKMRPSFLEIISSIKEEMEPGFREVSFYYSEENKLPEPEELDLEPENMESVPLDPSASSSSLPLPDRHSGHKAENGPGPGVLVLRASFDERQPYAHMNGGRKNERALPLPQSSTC
Sequence of RAC-alpha serine/threonine-protein kinase (P31749 whole entry): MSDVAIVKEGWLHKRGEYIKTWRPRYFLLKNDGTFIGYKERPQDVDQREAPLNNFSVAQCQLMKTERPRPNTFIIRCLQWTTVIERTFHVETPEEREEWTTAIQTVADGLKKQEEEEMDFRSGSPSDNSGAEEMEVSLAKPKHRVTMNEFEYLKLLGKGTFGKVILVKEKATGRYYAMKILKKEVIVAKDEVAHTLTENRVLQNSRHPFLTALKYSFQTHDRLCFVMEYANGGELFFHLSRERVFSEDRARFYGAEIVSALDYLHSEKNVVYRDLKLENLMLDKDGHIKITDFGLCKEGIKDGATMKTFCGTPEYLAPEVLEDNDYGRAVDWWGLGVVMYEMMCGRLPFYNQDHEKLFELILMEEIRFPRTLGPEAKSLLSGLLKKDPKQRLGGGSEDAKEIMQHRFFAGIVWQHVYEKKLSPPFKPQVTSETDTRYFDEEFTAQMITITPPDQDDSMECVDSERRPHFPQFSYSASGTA
Sequence of Tyrosine-protein kinase JAK2 (O60674 whole entry): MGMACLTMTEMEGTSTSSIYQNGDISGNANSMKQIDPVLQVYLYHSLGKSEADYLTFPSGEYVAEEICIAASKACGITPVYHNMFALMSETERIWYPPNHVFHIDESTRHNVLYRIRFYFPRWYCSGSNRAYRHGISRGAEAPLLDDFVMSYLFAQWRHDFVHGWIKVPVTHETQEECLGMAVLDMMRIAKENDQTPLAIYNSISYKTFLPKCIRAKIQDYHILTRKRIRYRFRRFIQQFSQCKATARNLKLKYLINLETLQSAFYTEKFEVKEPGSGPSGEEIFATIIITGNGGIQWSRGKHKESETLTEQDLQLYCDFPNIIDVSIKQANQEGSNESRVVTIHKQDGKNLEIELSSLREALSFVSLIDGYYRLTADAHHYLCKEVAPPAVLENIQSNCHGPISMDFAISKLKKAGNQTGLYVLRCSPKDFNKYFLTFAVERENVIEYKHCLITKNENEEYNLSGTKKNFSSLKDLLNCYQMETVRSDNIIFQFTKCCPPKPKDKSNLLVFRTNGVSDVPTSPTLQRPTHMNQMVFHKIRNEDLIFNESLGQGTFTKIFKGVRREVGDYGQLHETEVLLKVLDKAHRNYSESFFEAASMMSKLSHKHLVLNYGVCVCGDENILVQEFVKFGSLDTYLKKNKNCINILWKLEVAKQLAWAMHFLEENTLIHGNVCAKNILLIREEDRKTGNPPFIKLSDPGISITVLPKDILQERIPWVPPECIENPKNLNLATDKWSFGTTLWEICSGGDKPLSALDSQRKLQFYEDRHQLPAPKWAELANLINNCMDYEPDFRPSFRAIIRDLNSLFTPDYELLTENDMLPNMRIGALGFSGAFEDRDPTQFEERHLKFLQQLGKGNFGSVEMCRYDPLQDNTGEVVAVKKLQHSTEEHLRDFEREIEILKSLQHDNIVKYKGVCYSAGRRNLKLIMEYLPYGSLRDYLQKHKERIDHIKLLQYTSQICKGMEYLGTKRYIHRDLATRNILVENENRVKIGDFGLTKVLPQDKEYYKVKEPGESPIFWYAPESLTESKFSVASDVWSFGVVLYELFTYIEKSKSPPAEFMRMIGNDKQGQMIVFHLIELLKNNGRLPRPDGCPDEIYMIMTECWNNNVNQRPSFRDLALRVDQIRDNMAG
Sequence of Tyrosine-protein kinase Lck (P06239 whole entry): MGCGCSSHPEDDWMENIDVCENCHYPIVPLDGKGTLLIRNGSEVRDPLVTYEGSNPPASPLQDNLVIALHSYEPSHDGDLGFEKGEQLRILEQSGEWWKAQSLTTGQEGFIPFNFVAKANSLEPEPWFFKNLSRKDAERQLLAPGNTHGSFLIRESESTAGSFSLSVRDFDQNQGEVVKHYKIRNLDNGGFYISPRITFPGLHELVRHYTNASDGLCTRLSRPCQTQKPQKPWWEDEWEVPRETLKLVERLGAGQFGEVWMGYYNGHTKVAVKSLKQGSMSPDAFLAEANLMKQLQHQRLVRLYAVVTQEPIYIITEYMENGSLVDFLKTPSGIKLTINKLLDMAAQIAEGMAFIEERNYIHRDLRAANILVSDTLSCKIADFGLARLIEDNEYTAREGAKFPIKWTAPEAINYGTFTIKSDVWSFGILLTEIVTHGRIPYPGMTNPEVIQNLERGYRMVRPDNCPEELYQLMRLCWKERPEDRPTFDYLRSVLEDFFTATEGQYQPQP
Sequence of Aurora kinase B (Q96GD4 whole entry): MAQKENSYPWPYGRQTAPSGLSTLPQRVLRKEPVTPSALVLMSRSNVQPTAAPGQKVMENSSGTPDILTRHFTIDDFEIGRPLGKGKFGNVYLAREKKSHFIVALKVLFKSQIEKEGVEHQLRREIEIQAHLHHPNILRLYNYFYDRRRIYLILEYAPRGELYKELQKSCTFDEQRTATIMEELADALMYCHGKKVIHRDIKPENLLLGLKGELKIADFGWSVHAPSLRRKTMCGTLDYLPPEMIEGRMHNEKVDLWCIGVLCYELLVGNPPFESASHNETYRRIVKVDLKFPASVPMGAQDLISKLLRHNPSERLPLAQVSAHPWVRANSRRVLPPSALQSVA
Sequence of Mitogen-activated protein kinase 1 (P28482 whole entry): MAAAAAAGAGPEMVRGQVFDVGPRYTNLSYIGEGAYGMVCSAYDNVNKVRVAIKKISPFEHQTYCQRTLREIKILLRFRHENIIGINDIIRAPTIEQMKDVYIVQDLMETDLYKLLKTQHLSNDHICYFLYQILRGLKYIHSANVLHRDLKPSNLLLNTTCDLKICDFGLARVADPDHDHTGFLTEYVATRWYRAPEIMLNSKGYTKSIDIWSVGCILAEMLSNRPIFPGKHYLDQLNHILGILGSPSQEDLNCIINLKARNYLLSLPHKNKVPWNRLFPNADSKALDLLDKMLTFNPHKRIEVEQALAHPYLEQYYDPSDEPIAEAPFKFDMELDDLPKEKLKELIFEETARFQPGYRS

pIC50 (Aurora kinase A)	pIC50 (Aurora kinase B)	Papp A→B [1]	pIC50 [2]	pIC50 [3]	pIC50 [4]	pIC50 [5]	pIC50 [6]	pIC50 [7]	pIC50 [8]	pIC50 [9]	pIC50 [10]	pIC50 [11]	pIC50 [12]	Compound
> 8.40	> 7.89	2.8 ×10⁻⁶ cm/s	6.44	7.85	6.57	< 6.30	< 6.30	< 6.30	< 6.30	< 6.30	< 6.30	< 6.30	< 6.30	Cc1cn2c(-c3cn[nH]c3)cnc2c(Nc2cc(Cc3ccccn3)ns2)n1
> 8.40	> 7.89	2.1 ×10⁻⁶ cm/s	7.89	8.30	> 9.00	< 6.30	< 6.30	< 6.30	< 6.30	< 6.30	< 6.30	< 6.30	< 6.30	CCN(CCO)Cc1cc(Nc2nc(C)cn3c(-c4cn[nH]c4)cnc23)sn1

Compound	pIC50 (Aurora kinase A)	pIC50 (Aurora kinase B)	Papp A→B [1]	pIC50 [2]	pIC50 [3]	pIC50 [4]	pIC50 [5]	pIC50 [6]	pIC50 [7]	pIC50 [8]	pIC50 [9]	pIC50 [10]	pIC50 [11]	pIC50 [12]
Cc1cn2c(-c3cn[nH]c3)cnc2c(Nc2cc(C(NC(C)(C)C)c3ccccn3)ns2)n1 (single isomer, unassigned; (+))	≥ 8.40	≥ 7.89	2.4 ×10⁻⁶ cm/s	8.15	8.30	7.21	< 6.00	< 6.00	< 6.00	< 6.00	< 6.00	< 6.00	< 6.00	< 6.00

Source: ChEMBL document CHEMBL4219148, “Discovery of a highly potent orally bioavailable imidazo-[1, 2-a]pyrazine Aurora inhibitor” (Bioorg Med Chem Lett, 2018)
